This note sets out measurements from patent US6933322B2, “Substituted naphthylenes for the treatment of non-insulin dependent diabetes mellitus” (Wyeth, priority 2002, dated 2005).

One series relates to diabetic ob/ob mice. Briefly: Hypoglycemic effect in diabetic ob/ob mice. It is filed as in vivo, mouse. On the procedure:
Hypoglycemic Effect in Diabetic OB/OB Mice
Procedure: In each study, male or female ob/ob (C57 B1/6J) mice and their mean litermates (ob/+ or +/+, Jackson Laboratories) ages 2 to 5 months (10 to 65 g) were randomized according to plasma glucose into 4 groups of 10 mice. The mice were housed 5 per cage and were maintained on normal rodent chow with water ad libitum. Mice receive compound daily by gavage (suspended in 0.5 ml of 0.5% methyl cellulose); dissolved in the drinking water; or admixed in the diet. The dose of compounds given ranges from 2.5 to 200 mg/kg body weight/day. Body weight of fed animals was measured at the beginning of each week and doses for the entire week were calculated using this weight and were expressed in terms of the active moiety of the compound. Control mice receive vehicle only. […]
Measurements: The plasma was isolated by centrifugation and the concentration of glucose was measured enzymatically on an Abbott V. P. Analyzer and the plasma concentration of insulin was determined by radioimmunoassay (Heding, 1972)
Analysis of variance followed by Dunnett's Comparison Test (one-tailed) was used to estimate the significant difference between the plasma glucose values from the control group and the individual compound treated groups (CMS SAS Release 5.18). A compound will be considered active if the difference has a p<0.05.

For `O=S(=O)(Nc1ccc2c(OCc3ccc(-c4ccccc4)cc3F)cccc2c1)C(F)(F)F` [Example 4, C,C,C-Trifluoro-N-[5-(3-fluoro-biphenyl-4-ylmethoxy)-naphthalen-2-yl]-methanesulfonamide], the melting point (commonly the temperature, or range, at which the solid turns liquid) was in the range of 123 to 125 °C. Also, in the series on diabetic ob/ob mice (10 mg/kg), the “REDUCTION IN PLASMA GLUCOSE Day 1 (6 hr) p.o.” value was −28% (10 mg/kg) and the “REDUCTION IN PLASMA GLUCOSE Day 3 (6 hr) p.o.” value is −37% (10 mg/kg).
On the same counts, the results for `O=S(=O)(Nc1ccc2c(OCc3ccc(-c4cccc(Cl)c4)cc3)cccc2c1)C(F)(F)F` [Example 25, N-[5-(3′-Chloro-biphenyl-4-ylmethoxy)-naphthalen-2-yl]-C,C,C-trifluoromethanesulfonamide] are 170 to 171 °C, −22% (10 mg/kg) and −24% (10 mg/kg).
For `O=S(=O)(Nc1ccc2c(OCc3noc(C45CC6CC(CC(C6)C4)C5)n3)cccc2c1)C(F)(F)F` [Example 60, N-[5-(5-Adamantan-1-yl-[1,2,4]oxadiazol-3-ylmethoxy)-naphthalen-2-yl]-C,C,C-trifluoro-methanesulfonamide], the melting point is 60 to 62 °C.
On the same count and under the same terms, for `N#Cc1ccc(C2(COc3cccc4cc(NS(=O)(=O)C(F)(F)F)ccc34)N=CNO2)cc1` (stereo not drawn) [Example 61, N-{5-[5-(4-cyano-phenyl)-[1,2,4]-oxadiazol-5-ylmethoxy)-naphthalen-2-yl}-C,C,C-trifluoro-methanesulfonamide] the value was 184 to 185 °C; for `COc1cccc(C2(COc3cccc4cc(NS(=O)(=O)C(F)(F)F)ccc34)N=CNO2)c1` (stereo not drawn) [Example 62, N-{5-[5-(3-methoxy-phenyl)-[1,2,4]-oxadiazol-5-ylmethoxy)-naphthalen-2-yl}-C,C,C-trifluoro-methanesulfonamide], 138 to 140 °C; for `COc1ccc(C2(COc3cccc4cc(NS(=O)(=O)C(F)(F)F)ccc34)N=CNO2)cc1` (stereo not drawn) [Example 64, N-{5-[5-(4-methoxy-phenyl)-[1,2,4]-oxadiazol-5-ylmethoxy)-naphthalen-2-yl}-C,C,C-trifluoro-methanesulfonamide], 146 to 148 °C.
As for `O=S(=O)(Nc1ccc2c(OCc3nc(-c4ccc(F)cc4)no3)cccc2c1)C(F)(F)F` [Example 65, C,C,C-Trifluoro-N-{5-[3-(4-fluoro-phenyl)-[1,2,4]oxadiazol-5-yl-methoxy]-naphthalen-2-yl}-methanesulfonamide], the melting point lay in the range of 131 to 132 °C.
The same measure, in the same setting: for `O=S(=O)(Nc1ccc2c(OCc3nc(-c4cccc(C(F)(F)F)c4)no3)cccc2c1)C(F)(F)F` [Example 66, C,C,C-Trifluoro-N-{5-[3-(3-trifluoromethyl-phenyl)-[1,2,4]oxadiazol-5-ylmethoxy]-naphthalen-2-yl}-methanesulfonamide] the value was 155 to 156 °C.
Still for that read-out and setting: for `NC(=O)Nc1ccc2c(OCc3ccccc3-c3ccccc3)cccc2c1` [Example 74, [5-(Biphenyl-2-ylmethoxy)-naphthalen-2-yl]-urea] the value was 159 to 161 °C.
In the case of `COc1ccc(-c2ccc(Cl)cc2)cc1COc1cccc2cc(NC(N)=O)ccc12` [Example 76, [5-(4′-Chloro-4-methoxy-biphenyl-3-ylmethoxy)-naphthalen-2-yl]-urea], the melting point is 200 °C (dec.).
Still for that read-out and setting: for `NC(=O)Nc1ccc2c(OCc3ccc(-c4ccc(Cl)cc4)cc3)cccc2c1` [Example 77, [5-(4′-Chloro-biphenyl-4-ylmethoxy)-naphthalen-2-yl]-urea] the value was 182 °C (dec.); for `O=S(=O)(Nc1ccc2c(OCc3nc4ccccc4s3)cccc2c1)C(F)(F)F` [Example 78, N-[5-(Benzothiazol-2-ylmethoxy)-naphthalen-2-yl]-C,C,C-trifluoro-methanesulfonamide], 190 to 192 °C; for `Cc1oc(-c2ccccc2)nc1COc1cccc2cc(NS(=O)(=O)C(F)(F)F)ccc12` [Example 79, N-[5-(5-methyl-2-phenyl-oxazol-4-ylmethoxy)naphthalen-2-yl]C,C,C-trifluoromethanesulfonamide], 192 to 194 °C.
In turn, `O=S(=O)(Nc1ccc2c(OCc3coc(-c4ccccc4)n3)cccc2c1)C(F)(F)F` [Example 80, N-[5-(2-phenyl-oxazol-4-ylmethoxy)naphthalen-2-yl]C,C,C-trifluoromethanesulfonamide] registered a melting point of 195 to 197 °C.
As to `Cc1oc(-c2ccc(C(F)(F)F)cc2)nc1COc1cccc2cc(NS(=O)(=O)C(F)(F)F)ccc12` [Example 81], in the series with diabetic ob/ob mice (5 mg/kg), the “REDUCTION IN PLASMA GLUCOSE Day 1 (6 hr) p.o.” value was −28% (5 mg/kg) and the “REDUCTION IN PLASMA GLUCOSE Day 3 (6 hr) p.o.” value is −33% (5 mg/kg).
Turning to `Cc1oc(-c2ccc(F)cc2)nc1COc1cccc2cc(NS(=O)(=O)C(F)(F)F)ccc12` [Example 82, N-{5-[5-methyl-2-(4-fluoro-phenyl)-oxazol-4-ylmethoxy]naphthalen-2-yl}C,C,C-trifluoromethanesulfonamide], the melting point is 178 to 180 °C.
`O=S(=O)(Nc1ccc2c(OCc3ccc4ccccc4c3)cccc2c1)C(F)(F)F` [Example 83, N-[5-(Naphthalen-2-ylmethoxy)-naphthalen-2-yl]-C,C,C-trifluoro-methanesulfonamide]: the melting point was 140 to 142 °C.
The same measure, in the same setting: for `O=S(=O)(Nc1ccc2c(OCc3coc(-c4ccc(Cl)cc4)n3)cccc2c1)C(F)(F)F` [Example 84, N-{5-[2-(4-Chloro-phenyl)-oxazol-4-ylmethoxy]naphthalen-2-yl}C,C,C-trifluoromethanesulfonamide] the value was 198 to 200 °C; for `CC(C)(C)c1ccc(-c2nc(COc3cccc4cc(NS(=O)(=O)C(F)(F)F)ccc34)co2)cc1` [Example 85, N-{5-[2-(4-tert-Butyl-phenyl)-oxazol-4-ylmethoxy]naphthalen-2-yl}C,C,C-trifluoromethanesulfonamide], 165 to 167 °C; for `O=S(=O)(Nc1ccc2c(OCc3coc(-c4ccc(Br)cc4)n3)cccc2c1)C(F)(F)F` [Example 86, N-{5-[2-(4-Bromo-phenyl)-oxazol-4-ylmethoxy]naphthalen-2-yl}C,C,C-trifluoromethanesulfonamide], 205 to 207 °C.
Still for that read-out and setting: for `O=S(=O)(Nc1ccc2c(OCc3coc(-c4ccc(C(F)(F)F)cc4)n3)cccc2c1)C(F)(F)F` [Example 87, N-{5-[2-(4-trifluoromethyl-phenyl)-oxazol-4-ylmethoxy]naphthalen-2-yl}C,C,C-trifluoromethanesulfonamide] the value was 205 to 207 °C.
On the same count and under the same terms, for `Cc1ccccc1-c1nc(COc2cccc3cc(NS(=O)(=O)C(F)(F)F)ccc23)co1` [Example 88, N-[5-[2-o-tolyl-oxazol-4-ylmethoxy)naphthalen-2-yl]C,C,C-trifluoromethanesulfonamide] the value was 127 to 130 °C.
